Read-outs that look alike come from different tables or passages of the source.
Assays:
guinea-pig trachea [1] = assay: Bronchodilating effect in vitro, Method 1-1: relaxation of LTD4-contracted guinea-pig trachea strips; type: cell-based; details: Cavia porcellus, read-out: EC50 (concentration to achieve 50% relaxation relative to relaxation by 1 mM aminophylline)
Procedure: (§1) A test sample drug was dissolved in 100% dimethylsulfoxide (DMSO, Wako Junyaku) and diluted for use. Leukotriene D4 (LTD4, Ultrafine) and isoproterenol (Isoproterenol, Sigma) were diluted with distilled water. Indomethacin (Indo, Sigma) was dissolved in 100% ethanol (EtOH, Komune Kagaku). Aminophylline (AP, Sigma), histamine dihydrochloride (His, Wako Junyaku) was dissolved in distilled water. The final concentrations of DMSO and EtOH in a bath were made not higher than 0.25% v/v and not higher than 0.1% v/v, respectively. Method 1:1:
(§2) A guinea-pig of 300-450 g was exsanguinated, and the trachea was taken out. After removing fat and connective tissues, it was cut and divided into 2 to 3 spiral strips, each having a width of about 2 mm and containing 4 smooth muscle tissues. Each specimen thus prepared was suspended in an organ bath of 8 ml containing a modified Tyrode solution aerated with 95% O2 +5% CO2 at 37° C., and a load of 1 g was applied thereto. The relaxation of the muscle was recorded by a pen recorder (Yokogawa Hokushin Electric, type 3066) by means of an isotonic transducer (Nihon Kohden, TD-112S).
The composition of the modified Tyrode solution was as follows (mM):
The specimen was allowed to stand for 50-60 minutes, and was contracted with histamine dihydrochloride (100 μM). After the reaction became constant, it was washed and allowed to stand for 20-30 minutes. Indomethacin (5 μM) was added thereto, and after incubation for 30 minutes, the specimen was contracted by adding LTD4 (30 nM). After the reaction-became stable, a test sample drug was accumulatively administered. Finally, AP (1 mM) was added to achieve the maximum relaxation reaction. The result was expressed by relaxation percent relative to the relaxation by AP which was rated 100%, and a concentration to achieve 50% relaxation (EC50, μM) was measured. As a control drug, AP was used.

[2] = tested on: anaphylactic bronchoconstriction mediated by endogeneously liberated SRS-A; assay: Effect on anaphylactic bronchoconstriction mediated by endogeneously liberated SRS-A in passively sensitized guinea-pig; type: in vivo; details: for inhibition in vivo at 30 mg/kg: Cavia porcellus, po, 2 h
Procedure: Effect on anaphylactic bronchoconstriction mediated by endogeneously liberated SRS-A in passively sensitized guinea-pig
Male guinea-pigs (350-450 g) were passively sensitized with intravenous (i.v.) injection of 0.125 ml rabbit anti-EA (egg albumin) serum (Capple Laboratories) 1 to 2 days preceding the experiment. Antigen-induced anaphylactic bronchoconstrictions mediated by endogeneously liberated SRS-A were measured by modified method of Konzett and Rossler (Arch. Exp. Path. Pharmak., 195, 71, 1940). Sensitized quinea-pigs were anaesthetized with intraperitoneal injection of urethane (1.5 g/kg). The right jugular vein was cannulated for the administration of the all agents and trachea was cannulated to record total pulmonary resistance. Guinea-pigs were artificially ventilated by a small animal respirator (Shinano, Model SN-480-7) set at a stroke volume of 4.5 ml and a rate of 50 breaths per min. The change in pulmonary resistance was measured with a pressure transducer (Nihon Kohden, Model TP-602T) connected to a T-tube on the tracheal cannula. The percentage of the maximum bronchoconstriction obtained by clamping off the trachea. Following surgical preparation, the animals were pretreated with indomethacin (2 mg/kg, 10 min), pyrilamine (2 mg/kg, 6 min) and propranolol (0.1 mg/kg, 5 min) prior to the EA challenge (0.2 mg/kg). All test compounds were administered orally 2 hours before the EA challenge. Inhibition (%) of broncho-constriction was determined as follows: Inhibition (%)=(1.0-% maximum bronchoconstriction in test/% maximum bronchoconstriction in control)×100. The maximum bronchoconstriction was 62±6% (Mean±S.E.M; n=6) and the number of test animals was 5-6.

histamine H1 receptor = biological target: T1, histamine H1 receptor (Bos taurus, UniProt P30546); assay: Binding test employing 3H-pyrilamine (histamine H1 receptor-binding test); details: 0.5 h
T1 construct: suspension of bovine cerebellum; from tissue; host or cells: bovine cerebellum
Procedure: Tritiated pyrilamine was added to a suspension of bovine cerebellum and a 50 mM phosphate buffer solution (pH 7.5), and the mixture was left to stand still at 25° C. for 30 minutes. Then, the mixture was rapidly filtered under suction through a glass fiber filter paper, and the radio activities on the filter paper were measured.

platelet = assay: Anti-platelet aggregation effect in rabbits (ADP-induced); type: cell-based, rabbit; details: read-out: IC50 (concentration at which aggregation of control sample was 50% inhibited)
Procedure: Anti-platelet aggregation effect in rabbits
Blood was collected from the abdominal artery of Japanese white male rabbits (weight: 1.8 to 2.5 kg) into a syringe containing 1/10 volume 3.8% sodium citrate. The blood thus obtained was subjected to a centrifugation at 200×g for 7 minutes at room temperature to obtain platelet rich plasma (PRP). Furthermore, the residue was subjected to a centrifugation at 2000×g for 10 minutes to obtain platelet poor plasma (PPP). The measurement was effected by diluting PRP with PPP to 300,000/mm^3. PRP and PPP were placed in a cuvette, and the measurement range of transmittance was adjusted to 0% in the case of PRP and to 100% in the case of PPP. Thereafter, a test sample drug dissolved in 100% dimethylsulfoxide (DMSO) was added to PRP (the final concentration of DMSO: 0.25%). After incubation was effected at 37° C. at 900 rpm for 2 minutes, an aggregating agent was added to record an aggregation curve. The anti-platelet aggregation effect of the test sample drug was expressed by a concentration (IC50 : μM) at which the aggregation of control sample was 50% inhibited. The aggregating agent ADP was used at the minimum concentration (5 to 10 μM) which caused the maximum aggregation. The measurement of platelet aggregation was carried out by using NBS HEMA TRACER 601.

guinea-pig trachea [3] = assay: Bronchodilating effect in vitro, Method 1-2: relaxation of guinea-pig trachea strips (no LTD4 contraction); type: cell-based; details: Cavia porcellus, read-out: EC50 (concentration to achieve 50% relaxation relative to relaxation by 1 mM aminophylline)
Procedure: as §1, §2
The same measuring method as method 1-1 was employed. The specimen was allowed to stand for from 60 to 90 minutes and then relaxed by an addition of 1 μM of isopreterenol. The specimen was washed, and this operation was repeated at an interval of from 30 to 40 minutes until a constant relaxation reaction was reached. Then, a test sample drug was accumulately applied to relax the specimen. Finally, 1 mM of AP was added to achieve the maximum relaxation reaction. The result was expressed by relaxation percent relative to the relaxation by AP which was rated 100%, and a concentration to achieve 50% relaxation (EC50, μM) was obtained. The final concentration of DMSO in the bath was adjusted to be 0.2 v/v%. As a control drug, AP was used.

[4] = Method 1-1, LTD4 (30 nM) contracted trachea, indomethacin 5 μM
[5] = 30 mg/kg, orally 2 hours before EA challenge
[6] = Oryctolagus cuniculus, Platelet, rabbit PRP, ADP 5 to 10 μM, 37° C.
[7] = 10 μM, bovine cerebellum, pH 7.5, 25° C., 30 minutes, read-out: Inhibition ratio against H1-receptor
[8] = Method 1-2, trachea conditioned with 1 μM isoproterenol, no LTD4, DMSO 0.2 v/v%
[9] = 30 mg/kg, orally 2 hours before EA challenge, read-out: Inhibition of broncho-constriction

T1 sequence (P30546 whole entry): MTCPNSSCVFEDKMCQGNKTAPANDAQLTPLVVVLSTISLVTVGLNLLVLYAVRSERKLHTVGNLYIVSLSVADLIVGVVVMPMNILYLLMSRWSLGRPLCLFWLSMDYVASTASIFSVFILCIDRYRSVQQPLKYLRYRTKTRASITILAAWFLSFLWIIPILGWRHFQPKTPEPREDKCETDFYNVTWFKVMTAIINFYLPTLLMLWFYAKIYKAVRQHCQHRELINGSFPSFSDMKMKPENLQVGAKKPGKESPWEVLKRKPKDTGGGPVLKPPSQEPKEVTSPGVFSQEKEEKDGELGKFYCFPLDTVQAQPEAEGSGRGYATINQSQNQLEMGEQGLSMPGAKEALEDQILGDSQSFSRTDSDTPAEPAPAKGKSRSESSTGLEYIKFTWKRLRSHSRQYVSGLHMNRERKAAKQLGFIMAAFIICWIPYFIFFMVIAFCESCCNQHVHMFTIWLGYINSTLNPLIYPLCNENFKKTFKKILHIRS

| Structure (SMILES) | EC50 (guinea-pig trachea [1]; [4]) | IC50 (platelet; [6]) | inhibition at 10 µM (histamine H1 receptor; [7]) | EC50 (guinea-pig trachea [3]; [8]) | inhibition in vivo at 30 mg/kg [2, 9] | further results |
| --- | --- | --- | --- | --- | --- | --- |
| COc1ccc(CNc2cn[nH]c(=O)c2Br)cc1OCCN1CCN(Cc2ccc(Cl)cc2)CC1.Cl [Compound 7, 4-Bromo-5-[3-{2-(4-(4-chlorobenzyl)-piperazin-1-yl)-ethoxy}-4-methoxybenzylamino]-3(2H)-pyridazinone hydrochloride] | 490 nM | 5400 nM | – | – | – | Inhibition of broncho-constriction [2, 5]: 59%; inhibition at 10 µM (histamine H1 receptor; pH 7.5, read-out: Inhibition ratio against H1-receptor, 10 μM, bovine cerebellum, pH 7.5, 25° C., 30 minutes): 56.1% |
| COc1ccc(CNc2cn[nH]c(=O)c2Br)cc1OCCN1CCN(Cc2ccc(Cl)cc2)CC1.O=C(O)/C=C/C(=O)O [Compound 8, 4-Bromo-5-[3-{2-(4-(4-chlorobenzyl)-piperazin-1-yl)-ethoxy}-4-methoxybenzylamino]-3(2H)-pyridazinone fumarate] | – | – | 56.5% | – | – | Inhibition of broncho-constriction [2, 5]: 32%; IC50 (platelet; rabbit PRP, ADP 5 to 10 μM, 37° C., fumarate): 5500 nM |
| CCn1ncc(NCc2ccc(OC)c(OCCN3CCN(Cc4ccc(F)cc4)CC3)c2)c(Cl)c1=O [Compound 17] | 3300 nM | – | 55.8% | – | – | – |
| COc1ccc(CNc2cn[nH]c(=O)c2Br)cc1OCCCN1CCN(Cc2ccccc2)CC1 [Compound 22] | 390 nM | 2100 nM | 86.6% | – | – | – |
| COc1ccc(CNc2cn[nH]c(=O)c2Cl)cc1OCCCN1CCN(Cc2ccccc2)CC1 [Compound 23] | 1300 nM | 4600 nM | 92.2% | – | – | – |
| COc1ccc(CNc2c([N+](=O)[O-])n[nH]c(=O)c2Cl)cc1OCCCN1CCN(Cc2ccccc2)CC1 [Compound 24] | 2000 nM | – | 89.2% | 980 nM | – | – |
| COc1ccc(CNc2c(Cl)n[nH]c(=O)c2Cl)cc1OCCCN1CCN(Cc2ccccc2)CC1 [Compound 25] | 470 nM | 5100 nM | 94.4% | – | 59% | – |
| COc1ccc(CNc2cn[nH]c(=O)c2Cl)cc1OCCCN1CCN(Cc2ccc(F)cc2)CC1 [Compound 26] | 750 nM | – | 92.6% | 910 nM | 36% | – |
| COc1ccc(CNc2c([N+](=O)[O-])n[nH]c(=O)c2Cl)cc1OCCCN1CCN(Cc2ccc(Cl)cc2)CC1 [Compound 29] | – | – | 93.6% | – | – | – |
| COc1ccc(CNc2c(Cl)n[nH]c(=O)c2Cl)cc1OCCCN1CCN(Cc2ccc(Cl)cc2)CC1 [Compound 30] | 2600 nM | – | 90.5% | – | – | – |
| COc1ccc(CNc2cn[nH]c(=O)c2Cl)cc1OCC(=O)N1CCN(Cc2ccccc2)CC1 [Compound 36] | – | – | – | – | – | EC50 (guinea-pig trachea [1]): 320 nM; EC50 (guinea-pig trachea [3]): 240 nM; inhibition in vivo at 30 mg/kg ([2]; read-out: Inhibition of broncho-constriction, 30 mg/kg, orally 2 hours before EA challenge): 41%; IC50 (platelet; Oryctolagus cuniculus, Platelet): 1600 nM |
| COc1ccc(CNc2cn[nH]c(=O)c2Cl)cc1OCC(=O)N1CCN(Cc2ccc(F)cc2)CC1 [Compound 39] | 160 nM | 1400 nM | – | 170 nM | 63% | – |
| COc1ccc(CNc2cn[nH]c(=O)c2Br)cc1OCC(=O)N1CCN(Cc2ccc(F)cc2)CC1 [Compound 43] | 400 nM | 2200 nM | – | 280 nM | 62% | – |
| COc1ccc(CNc2cn[nH]c(=O)c2Cl)cc1OCCCC(=O)N1CCN(Cc2ccccc2)CC1 [Compound 47] | 770 nM | 5700 nM | – | 540 nM | 37% | – |
| CCOc1n[nH]c(=O)c(Cl)c1NCc1ccc(OC)c(OCC(=O)N2CCN(Cc3ccc(F)cc3)CC2)c1 [Compound 64] | 320 nM | 390 nM | – | 61 nM | 26% | – |
| CCOc1n[nH]c(=O)c(Cl)c1NCc1ccc(OC)c(OCC(=O)N2CCN(Cc3ccc4ccccc4n3)CC2)c1 [Compound 67] | 170 nM | 400 nM | – | 41 nM | 29% | – |
| COc1ccc(CNc2c(OC(C)C)n[nH]c(=O)c2Cl)cc1OCC(=O)N1CCN(Cc2ccc(N)cc2)CC1 [Compound 78, 4-Chloro-5-[3-(4-(4-aminobenzyl)-piperazin-1-yl)-carbonylmethoxy-4-methoxybenzylamino]-6-isopropoxy-3(2H)-pyridazinone] | – | – | – | 14 nM | 54% | – |
| COc1ccc(CNc2c(OC(C)C)n[nH]c(=O)c2Cl)cc1OCC(=O)N1CCN(Cc2ccc(NC(C)=O)cc2)CC1 [Compound 80] | – | – | – | 39 nM | 30% | – |

Source: US5929074A, “Pyridazinone derivatives with pharmaceutical activity” (Nissan Chemical Industries, Ltd., priority 1993, dated 1999)
